Here are results for 8 compounds from publication PMC5296967, “Binding affinity of five PBPs to Ostrinia sex pheromones” (BMC Molecular Biology, 2017).

Several values for one entry are separate records, joined by “and”; a condition that tells them apart may be missing. Equal values may be shown once. Entries after “also recorded” stand apart in the source; their conditions may differ.

Test [1] deals with PBPLma. The arrangement: method as in PMID 12529170. The following applies: read-out: binding affinities; cited from earlier work.
Test [2] addresses recombinant OfurPBP1 (Ostrinia furnacalis, UniProt E7CC99). Put plainly: Competitive fluorescence binding assay with 1-NPN probe, OfurPBP1. The following applies: mean ± SE, dash = undetectable interaction; for Ki: pH 7.4, Ki = [IC50]/(1 + [1-NPN]/K1-NPN); for IC50: pH 7.4, displacement of 1-NPN. The method, then:
(§1) The 1-NPN probe was excited at 337 nm, and emission spectra were recorded between 380 and 450 nm on a Shimadzu fluorescence spectrophotometer (Shimadzu, Japan). Each trial was run in triplicate, and Scatchard plots of the ratio of bound to unbound ligand were created using Microsoft Excel 2010. Competitive binding assays were performed with each of the OfurPBPs using 1-NPN as the probe. Assay reactions were comprised of 2 µM of each OfurPBP diluted individually in 2.0 ml 20 mM Tris–HCl, pH 7.4, which were then titrated with 1.0 mM increments sex pheromone diluted in methanol to a final concentrations of 1–6 µM. The synthetic standards that correspond to the sex pheromones of O. furnacalis, O. nubilalis and other lepidopteran species were purchased from Sigma-Aldrich (Shanghai, China; Additional file 2: S2). Excitation and emission spectra were recorded from triplicate assays as described above. The binding affinity of each purified OfurPBP to the different sex pheromones was measured by calculation of binding constants via competitive fluorescence-binding assay. In brief, relative fluorescent intensities were analyzed by GraphPad Prism 5 software (GraphPad Software Inc, La Jolla, CA) and calculation was done using the equation: Ki = [IC50]/(1 + [1-NPN]/K1-NPN), where [1-NPN] is the free concentration of 1-NPN and K1-NPN is the dissociation constant of the complex protein/1-NPN [19, 20]. Sex pheromone binding affinity with different PBPs was analyzed using One-way ANOVA in SAS 8.0 (SAS Institute Inc., Cary, NC, USA).

For test [3], the target named is recombinant OfurPBP2 (Ostrinia furnacalis, UniProt E7CCA0). Put plainly: Competitive fluorescence binding assay with 1-NPN probe, OfurPBP2. The following applies: dash = undetectable interaction; for IC50: pH 7.4, displacement of 1-NPN, mean ± SE; for Ki: pH 7.4, mean ± SE. The method, then: as §1
Chain of recombinant OfurPBP2 (E7CCA0 entry or part of it): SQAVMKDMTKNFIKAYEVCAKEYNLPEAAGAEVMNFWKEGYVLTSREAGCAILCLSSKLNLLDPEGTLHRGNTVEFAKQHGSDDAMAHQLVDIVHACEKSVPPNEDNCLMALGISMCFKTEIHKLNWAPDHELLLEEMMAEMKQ
Test [4] addresses recombinant OfurPBP3 (Ostrinia furnacalis, UniProt E7CCA1). Description: Competitive fluorescence binding assay with 1-NPN probe, OfurPBP3 wild type. Conditions: pH 7.4; for IC50 / Ki: OfurPBP3 wild type, mean ± SE, dash = undetectable interaction; for IC50: displacement of 1-NPN. The method, then:
as §1

Test [5] deals with recombinant OfurPBP4 (Ostrinia furnacalis, UniProt E7CCA2). Put plainly: Competitive fluorescence binding assay with 1-NPN probe, OfurPBP4. Conditions: pH 7.4; for IC50 / Ki: OfurPBP4, mean ± SE, dash = undetectable interaction; for IC50: displacement of 1-NPN. Here is the method: as §1
Chain of recombinant OfurPBP4 (E7CCA2 entry or part of it): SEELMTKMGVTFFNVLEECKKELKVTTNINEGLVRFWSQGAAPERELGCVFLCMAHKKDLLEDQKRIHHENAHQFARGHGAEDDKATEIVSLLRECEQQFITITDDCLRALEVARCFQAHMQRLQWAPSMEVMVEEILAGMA
The target in test [6] is recombinant OfurPBP5 (Ostrinia furnacalis, UniProt E7CCA3). Description: Competitive fluorescence binding assay with 1-NPN probe, OfurPBP5. The following applies: pH 7.4; for IC50 / Ki: OfurPBP5, mean ± SE, dash = undetectable interaction; for IC50: displacement of 1-NPN. Here is the method:
as §1

Test [7] deals with OfurPBP3 mutant M1: I113N (Ostrinia furnacalis, UniProt E7CCA1, I135N). Description: Competitive binding assay, OfurPBP3 mutant M1 I113N. The following applies: for fold reduction in affinity compared to wild-type OfurPBP3: mutant I113N vs wildtype. Here is the method: as §1
Chain of OfurPBP3 mutant M1: I113N (E7CCA1 entry or part of it I135N): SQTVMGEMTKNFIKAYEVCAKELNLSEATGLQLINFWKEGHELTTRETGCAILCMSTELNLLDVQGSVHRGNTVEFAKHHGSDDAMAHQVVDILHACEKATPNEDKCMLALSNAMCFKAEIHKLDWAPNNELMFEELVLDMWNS
(§2) Four amino acids of OfurPBP3 with some of the most negative estimated E total values were mutated using Quick-change lightning site-directed mutagenesis kit (Stratagene, La Jolla, CA, USA); Ile to Asn at position 113 ([…]), m2 Phe to Ser at position 12 (F12S), m3 Ile to Asn at position 52 (I52N), and m4 […] to Arg at position 94 (I94R). The sequence of each primers used to alter the aforementioned sites by nucleotide mismatch are shown in Additional file 3: S3. After initial denaturation at 94 °C for 5 min, the subsequent PCR followed with 30 cycles of 94 °C for 30 s, 56 °C for 30 s, and final extension at 72 °C for 1 min. Changes within site-directed mutant fragments were verified by cloning into the pGEM-T Easy vector (Promega) by Sanger sequencing. All mutated OfurPBPs proteins were expressed and used within in vitro binding assays as described above.

In test [8] the target is OfurPBP3 mutant M2: F12S (Ostrinia furnacalis, UniProt E7CCA1, F34S). Put plainly: Competitive binding assay, OfurPBP3 mutant M2 F12S. Here is the method:
as §1, §2

For test [9], the target named is OfurPBP3 mutant M3: I52N (Ostrinia furnacalis, UniProt E7CCA1, I74N). Description: Competitive binding assay, OfurPBP3 mutant M3 I52N. The method, then: as §1, §2
Chain of OfurPBP3 mutant M3: I52N (E7CCA1 entry or part of it I74N): as the sequence (E7CCA1 entry or part of it I135N) above, with I52N, N113I counted along it
Test [10] addresses OfurPBP3 mutant M4: I94R (Ostrinia furnacalis, UniProt E7CCA1, L116R). Put plainly: Competitive binding assay, OfurPBP3 mutant M4 I94R. The method, then:
as §1, §2

Test [11] has as its system OfurPBP1, OfurPBP2, OfurPBP3, OfurPBP4 and OfurPBP5. Put plainly: Competitive binding assay, statements on all five OfurPBPs together. On the set-up: species or system Ostrinia furnacalis. The following applies: pH 7.4. The method, then: as §1
For test [12], the system named is OfurPBP3 mutants F12S, I52N, I94R, and I113N. Description: Competitive binding assay, statements on all OfurPBP3 mutants together. Conditions: for binding to all mutated OfurPBPs (in words): pH 7.4; for fold reduction in OfurPBP3 affinity caused by Ser12, Asn52, Arg94, Asn113 variants: range over the four mutants vs wild type. The arrangement: species or system Ostrinia furnacalis. The method, then:
as §1, §2

Chain of recombinant OfurPBP1 (E7CC99 entry or part of it): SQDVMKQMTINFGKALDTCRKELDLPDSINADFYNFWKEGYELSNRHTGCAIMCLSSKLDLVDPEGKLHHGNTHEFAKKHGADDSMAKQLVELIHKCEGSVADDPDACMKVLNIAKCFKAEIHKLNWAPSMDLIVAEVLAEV
Chain of OfurPBP3 mutant M2: F12S (E7CCA1 entry or part of it F34S): as the sequence (E7CCA1 entry or part of it I135N) above, with F12S, N113I counted along it
Chain of recombinant OfurPBP3 (E7CCA1 entry or part of it): as the sequence (E7CCA1 entry or part of it I135N) above, with N113I counted along it
Chain of recombinant OfurPBP5 (E7CCA3 entry or part of it): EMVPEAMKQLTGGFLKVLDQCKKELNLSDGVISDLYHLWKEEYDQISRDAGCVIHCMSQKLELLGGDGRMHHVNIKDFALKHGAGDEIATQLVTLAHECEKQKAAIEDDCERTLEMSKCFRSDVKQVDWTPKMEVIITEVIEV
Chain of OfurPBP3 mutant M4: I94R (E7CCA1 entry or part of it L116R): as the sequence (E7CCA1 entry or part of it I135N) above, with L94R, N113I counted along it

For the compound `CC(=O)C(C)O` (centres unmarked) [3-hydroxy-butan-2-on], the Kd in [1] is 3.8 µM.
`CC/C=C/CCCCCCCCCCOC(C)=O` [E11-14:OAc, (E)-11-Tetradecenyl acetate]: the Ki amounted to 4.61 ± 0.02 µM in test [2]; 2.77 ± 0.01 µM in test [3]; 1.97 ± 0.11 µM in test [4]; 2.13 ± 0.53 µM in test [5]; 1.14 ± 0.04 µM in test [6]. For the same compound, the IC50 in test [2] was 5.3 ± 0.02 µM; in test [3], 3.28 ± 0.01 µM; in [4], 2.64 ± 0.15 µM; in test [5] it was 2.31 ± 0.57 µM; in test [6], 1.9 ± 0.07 µM; in test [7], above 6 µM. The IC50 in test [8], in [9] and in test [10] was above 6 µM each time. Further, in test [11], the “binding to all five OfurPBPs (in words)” value was “relatively high affinities”.
`CC/C=C/CCCCCCCCCCO` [E11-14:OH, (E)-11-Tetradecenol]: the Ki in [2], in [4], in [5] and in [6] was above 6 µM each time. For the same compound, the IC50 in test [2], in test [3], in test [4], in [5], in test [6] and in test [7] was above 6 µM in each case. Also, the IC50 in [8], in test [9] and in test [10] was above 6 µM each time. Moreover, in test [4], the “binding to wildtype OfurPBP3 (in words)” value is given as “failed to demonstrate this function”. For the same compound, the “binding to all five OfurPBPs (in words)” value in test [11] was “weak or lack of detectable binding”. The “binding to all mutated OfurPBPs (in words)” value in test [12] is listed as “weak binding affinity”.
As for `C/C=C/CCCCCCCCCCCOC(C)=O` [E12-14:OAc, (E)-12-Tetradecenyl acetate], the Ki in [2] was 5.01 ± 0.14 µM; in test [3], 4.12 ± 0.08 µM; in test [4] it was 2.85 µM and 2.84 µM; in [5], above 6 µM. The IC50 is 5.77 ± 0.16 µM in test [2]; 4.88 ± 0.1 µM in [3]; 3.81 ± 0.02 µM in [4]; above 6 µM in test [5]; above 6 µM in test [6]; above 6 µM in [7]. In addition, the IC50 in test [8], in test [9] and in test [10] was above 6 µM throughout. In addition, in [5], the “binding to OfurPBP4 (in words)” value is on record as “incapable of binding; also recorded: no detectable binding”. The “fold reduction in OfurPBP3 affinity caused by Ser12, Asn52, Arg94, Asn113 variants” value in test [12] is reported as 1.7- to 4.6 fold.
For the compound `CCCC/C=C\CCCCCCCCO` [Z9-14:OH, (Z)-9-Tetradecenol], the Ki in test [2], in test [3], in test [4], in [5] and in test [6] was above 6 µM each time. Also, the IC50 in [2], in test [3], in test [4], in [5], in [6] and in [7] was above 6 µM in each case. In addition, the IC50 in [8], in [9] and in test [10] was above 6 µM each time. The “binding to wildtype OfurPBP3 (in words)” value in [4] was “failed to demonstrate this function”. For the same compound, the “binding to I113N (in words)” value in [7] (pH 7.4) is recorded as “ability to bind”. Further, in test [11], the “binding to all five OfurPBPs (in words)” value is given as “weak or lack of detectable binding”. Moreover, in test [12], the “binding to all mutated OfurPBPs (in words)” value was “weak binding affinity”.
Regarding `CC/C=C\CCCCCCCCCCOC(C)=O` [Z11-14:OAc, (Z)-11-Tetradecenyl acetate], the Ki stood at 4.08 ± 0.12 µM in test [2]; 2.95 ± 0.05 µM in test [3]; 2.44 ± 0.18 µM in test [4]; 1.09 ± 0.05 µM in test [5]; 2.18 ± 0.17 µM in test [6]. The IC50 in [2] is 4.69 ± 0.14 µM; in test [3], 3.49 ± 0.06 µM; in test [4] it was 3.27 ± 0.24 µM; in test [5], 1.18 ± 0.05 µM; in test [6] it was 3.64 ± 0.28 µM; in [7], above 6 µM. The IC50 in test [8], in [9] and in test [10] was above 6 µM in each case. The “fold reduction in affinity compared to wild-type OfurPBP3” value in test [7] is around 8.25 fold. The “binding to all five OfurPBPs (in words)” value in test [11] was “relatively high affinities”.
Turning to `C/C=C\CCCCCCCCCCCOC(C)=O` [Z12-14:OAc, (Z)-12-Tetradecenyl acetate], the Ki in test [2] is 4.24 ± 0.82 µM; in test [3], 4.19 ± 0.09 µM; in [4] it was 2.86 ± 0.04 µM. In addition, the IC50 in test [2] is 4.88 ± 0.94 µM; in test [3], 4.96 ± 0.23 µM; in test [4] it was 3.83 ± 0.06 µM; in test [5], above 6 µM; in [6], above 6 µM; in test [7] it was above 6 µM. The IC50 in [8], in test [9] and in [10] was above 6 µM each time. Also, in test [6], the “binding to OfurPBP5 (in words)” value is recorded as “weakly”. Besides, the “fold reduction in affinity compared to wild-type OfurPBP3” value in [7] and in test [8] (mutant F12S vs wildtype) was ~ 2 fold each time. Further, the “fold reduction in OfurPBP3 affinity caused by Ser12, Asn52, Arg94, Asn113 variants” value in [12] is listed as 1.7- to 4.6 fold.
Take `CC(O)C(C)O` (centres unmarked) [butane-2,3-diol]: in [1], the Kd is 2.5 µM.
